Results from PubChem BioAssay (NCI).
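Grown in 96-well plates, cells were treated for 48 hours with each compound at five concentrations. Insufficient inhibition: endpoint recorded as highest concentration tested. GI50 = concentration required for 50% inhibition of growth. The concentration for full growth arrest is given as TGI.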

Legend:
Experiment in all cases: NCI tumour cell line growth inhibition, 48 h
[1] = system: DU-145 prostate
[2] = system: SN12C renal
[3] = system: BT-549 breast
[4] = system: U251 CNS
[5] = system: HCT-15 colon
[6] = system: UO-31 renal
[7] = system: MDA-MB-435
[8] = system: NCI-H226 lung
[9] = system: NCI-H522 lung
[10] = system: UACC-257 melanoma
[11] = system: NCI/ADR-RES ovarian
[12] = system: 786-0 renal
[13] = system: LOX IMVI melanoma
[14] = system: SK-OV-3 ovarian
[15] = system: T-47D breast
[16] = system: SK-MEL-2 melanoma
[17] = system: HS 578T breast
[18] = system: OVCAR-5 ovarian
[19] = system: OVCAR-3 ovarian
[20] = system: SK-MEL-5 melanoma
[21] = system: ACHN renal
[22] = system: HOP-92 NSCLC
[23] = system: OVCAR-4 ovarian
[24] = system: RPMI-8226 leukemia
[25] = system: KM12 colon
[26] = system: SF-539 CNS
[27] = system: HL-60(TB) leukemia
[28] = system: HT29 colon
[29] = system: TK-10 renal

COc1ccc(N2C(=O)C(c3ccccc3)(c3ccccc3)C23C(=O)N(C)c2ccccc23)cc1 (stereo not drawn)
GI50 [1]: > 100 µM
TGI [1]: > 100 µM
GI50 [2]: > 100 µM
TGI [2]: > 100 µM
GI50 [3]: > 100 µM
TGI [3]: > 100 µM
GI50 [4]: > 100 µM
TGI [4]: > 100 µM
GI50 [5]: > 100 µM
TGI [5]: > 100 µM
GI50 [6]: > 100 µM
TGI [6]: > 100 µM
GI50 [7]: > 100 µM
TGI [7]: > 100 µM
GI50 [8]: > 100 µM
TGI [8]: > 100 µM
GI50 [9]: > 100 µM
TGI [9]: > 100 µM
GI50 [10]: > 100 µM
TGI [10]: > 100 µM
GI50 [11]: > 100 µM
TGI [11]: > 100 µM
GI50 [12]: > 100 µM
TGI [12]: > 100 µM
GI50 [13]: > 100 µM
TGI [13]: > 100 µM
GI50 [14]: > 100 µM
TGI [14]: > 100 µM
GI50 [15]: > 100 µM
TGI [15]: > 100 µM
GI50 [16]: > 100 µM
TGI [16]: > 100 µM
GI50 [17]: > 100 µM
TGI [17]: > 100 µM
GI50 [18]: > 100 µM
TGI [18]: > 100 µM
GI50 [19]: > 100 µM
TGI [19]: > 100 µM
GI50 [20]: > 100 µM
TGI [20]: > 100 µM
GI50 [21]: > 100 µM
TGI [21]: > 100 µM
GI50 [22]: > 100 µM
TGI [22]: > 100 µM
GI50 [23]: > 100 µM
TGI [23]: > 100 µM
GI50 [24]: > 100 µM
TGI [24]: > 100 µM
GI50 [25]: > 100 µM
TGI [25]: > 100 µM
GI50 [26]: > 100 µM
TGI [26]: > 100 µM
GI50 [27]: > 100 µM
TGI [27]: > 100 µM
GI50 [28]: > 100 µM
TGI [28]: > 100 µM
GI50 [29]: > 100 µM
TGI [29]: > 100 µM
